One experiment concerns FaDu. Kind of experiment: MTT anti-proliferative assay. The class given is cell-based. Conditions: Homo sapiens. How it is done:
The cell lines used for the present study were K562 (erythroid leukemia), COLO-205 (colon carcinoma), FaDu (hypopharyngeal carcinoma), MCF-7 (breast ER+ve adenocarcinoma), WRL-68 (hepatocellular carcinoma), A549 (lung carcinoma), and HEK-293 (embryonic kidney). These cell lines were purchased from the National Center for Cell Sciences (NCCS), Pune, India, except FaDu, which Dr. Sarkar endowed from CSIR-Central Drug Research Institute, Lucknow, Uttar Pradesh, India.
The MTT assay was performed following the protocol as Mosmann ([30]) determined. […] The next day, 10 μl (500 μg/ml) of MTT dye was added to each well of the plate and further incubated for 4 h. After that, the formazan crystal was dissolved in 100 μl DMSO and absorbance was measured at 570 nm. The SRB, NRU, and MTT assays were calculated using percentage cytotoxicity concerning control ([30]).
For orientation: Tetrazolium dyes change colour on reduction, which living cells bring about.

Experiment [1] addresses T1, Dihydrofolate reductase (DHFR) (Homo sapiens, UniProt P00374).
T1 construct: endogenous in cells; host or cells: FaDu, K562, A549
Kind of experiment: DHFR activity assay in lysate of treated cells. Conditions: cell-based test system, higher tested concentration 100 μM. How it is done:
Protein was estimated by nanodrop before being used for the enzyme assays.
In one set, ~10 μg of cell lysate was incubated with a reaction cocktail (2.3 mM DHFA, 0.11 mM β-NADPH in 50 mM potassium phosphate buffer, and pH 6.5), while another set was incubated in the reaction cocktail containing 0.1% bovine serum albumin (BSA) solution. The reaction mixture was mixed, and the kinetic study was performed at 340 nm for 5 min. The results were calculated using percentage inhibition concerning control ([31]). The ODC activity was determined by the modified method reported by Luqman et al. ([32]). Approximately 10 μg of cell lysate was added to the reaction cocktail (2.5 mM β-mercaptoethanol, 1.5 mM EDTA, 75 nM pyridoxal-phosphate, 3 mM L-ornithine hydrochloride in 150 mM potassium phosphate buffer, and pH 7.1). Approximately, 400 μl of 1 M perchloric acid was used to terminate the reaction, and NaOH (4N) was added to the supernatant. Further, 1-pentanol was added after centrifugation. Then, the upper organic phase was transferred to a microcentrifuge tube with 200 μl sodium borate, 200 μl TNBS, and 400 μl DMSO. Further, it was centrifuged, and 60 μl of supernatant was taken in plate, and absorbance was measured at 412 nm. The graph was plotted in the terms of percentage inhibition.

T1 sequence (P00374 whole entry): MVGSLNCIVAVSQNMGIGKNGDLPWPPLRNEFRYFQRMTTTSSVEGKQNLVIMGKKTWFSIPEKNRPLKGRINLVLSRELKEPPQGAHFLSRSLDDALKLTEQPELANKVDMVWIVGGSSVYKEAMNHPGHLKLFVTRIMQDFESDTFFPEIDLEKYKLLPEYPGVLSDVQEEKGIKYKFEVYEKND

Regarding `Cc1ccc(C(C)C)cc1O` [carvacrol, 5-isopropyl-2-methyl phenol], in the experiment with FaDu, the IC50 (as a rule, the point on the concentration scale where inhibition reaches its midpoint) is 9.61 ± 0.05 µM. In experiment [1], the “suppression of DHFR enzyme action” value is on record as “up to 7%”.

The values are drawn from PMC9028219 (Frontiers in Nutrition, 2022).
